Laboratory results as given in patent US20090298820A1, “3-SUBSTITUTED-1H-PYRROLO[2,3-B]PYRIDINE AND 3-SUBSTITUTED-1H-PYRROLO[3,2-B]PYRIDINE COMPOUNDS, THEIR USE AS MTOR KINASE AND PI3 KINASE INHIBITORS, AND THEIR SYNTHESES” (Wyeth, priority 2008, published 2009).
Where two headings read alike, the source gives them in different places.

Tests used:
[1] = molecular target: PI3Kγ (Homo sapiens, UniProt P48736); experiment: PI3K-gamma fluorescence polarization assay; type: biochemical; settings: read-out: PI3Kγ Median IC50
Sequence of PI3Kγ (P48736 whole entry, species assumed): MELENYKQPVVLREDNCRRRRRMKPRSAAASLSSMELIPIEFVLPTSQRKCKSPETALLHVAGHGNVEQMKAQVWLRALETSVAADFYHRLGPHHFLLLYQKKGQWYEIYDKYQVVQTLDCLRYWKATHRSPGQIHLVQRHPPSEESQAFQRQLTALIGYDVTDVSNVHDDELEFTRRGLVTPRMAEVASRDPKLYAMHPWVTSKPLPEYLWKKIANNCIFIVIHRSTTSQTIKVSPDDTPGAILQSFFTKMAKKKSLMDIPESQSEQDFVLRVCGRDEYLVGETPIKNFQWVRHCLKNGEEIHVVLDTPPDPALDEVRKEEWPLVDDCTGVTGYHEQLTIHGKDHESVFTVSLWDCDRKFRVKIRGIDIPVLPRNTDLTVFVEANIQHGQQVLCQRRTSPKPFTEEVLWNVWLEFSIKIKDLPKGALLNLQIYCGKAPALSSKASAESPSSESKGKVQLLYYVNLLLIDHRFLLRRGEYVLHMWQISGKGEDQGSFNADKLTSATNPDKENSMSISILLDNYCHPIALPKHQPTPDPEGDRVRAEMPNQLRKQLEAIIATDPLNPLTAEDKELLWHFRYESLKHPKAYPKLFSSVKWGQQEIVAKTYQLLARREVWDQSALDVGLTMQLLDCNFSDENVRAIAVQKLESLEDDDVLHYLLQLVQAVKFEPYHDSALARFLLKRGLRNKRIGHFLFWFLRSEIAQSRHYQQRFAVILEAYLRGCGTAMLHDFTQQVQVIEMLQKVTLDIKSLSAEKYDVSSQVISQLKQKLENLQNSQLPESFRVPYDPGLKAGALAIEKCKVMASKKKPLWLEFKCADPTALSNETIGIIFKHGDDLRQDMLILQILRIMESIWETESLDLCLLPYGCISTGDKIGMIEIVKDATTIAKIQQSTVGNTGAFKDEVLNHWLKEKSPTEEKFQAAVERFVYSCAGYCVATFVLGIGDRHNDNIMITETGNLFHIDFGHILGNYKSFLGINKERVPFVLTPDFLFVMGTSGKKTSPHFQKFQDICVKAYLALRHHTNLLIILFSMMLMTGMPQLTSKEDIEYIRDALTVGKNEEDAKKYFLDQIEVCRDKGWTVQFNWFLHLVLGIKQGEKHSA

[2] = molecular target: T1, mTOR (Homo sapiens, UniProt P42345); experiment: mTOR enzyme assay (DELFIA format, His6-S6K substrate); type: biochemical; settings: read-out: mTOR Kinase Median IC50
[3] = molecular target: PI3Kα (Homo sapiens, UniProt P42336); experiment: PI3K-alpha fluorescence polarization assay; type: biochemical; settings: read-out: PI3Kα Median IC50
Sequence of PI3Kα (P42336 whole entry, species assumed): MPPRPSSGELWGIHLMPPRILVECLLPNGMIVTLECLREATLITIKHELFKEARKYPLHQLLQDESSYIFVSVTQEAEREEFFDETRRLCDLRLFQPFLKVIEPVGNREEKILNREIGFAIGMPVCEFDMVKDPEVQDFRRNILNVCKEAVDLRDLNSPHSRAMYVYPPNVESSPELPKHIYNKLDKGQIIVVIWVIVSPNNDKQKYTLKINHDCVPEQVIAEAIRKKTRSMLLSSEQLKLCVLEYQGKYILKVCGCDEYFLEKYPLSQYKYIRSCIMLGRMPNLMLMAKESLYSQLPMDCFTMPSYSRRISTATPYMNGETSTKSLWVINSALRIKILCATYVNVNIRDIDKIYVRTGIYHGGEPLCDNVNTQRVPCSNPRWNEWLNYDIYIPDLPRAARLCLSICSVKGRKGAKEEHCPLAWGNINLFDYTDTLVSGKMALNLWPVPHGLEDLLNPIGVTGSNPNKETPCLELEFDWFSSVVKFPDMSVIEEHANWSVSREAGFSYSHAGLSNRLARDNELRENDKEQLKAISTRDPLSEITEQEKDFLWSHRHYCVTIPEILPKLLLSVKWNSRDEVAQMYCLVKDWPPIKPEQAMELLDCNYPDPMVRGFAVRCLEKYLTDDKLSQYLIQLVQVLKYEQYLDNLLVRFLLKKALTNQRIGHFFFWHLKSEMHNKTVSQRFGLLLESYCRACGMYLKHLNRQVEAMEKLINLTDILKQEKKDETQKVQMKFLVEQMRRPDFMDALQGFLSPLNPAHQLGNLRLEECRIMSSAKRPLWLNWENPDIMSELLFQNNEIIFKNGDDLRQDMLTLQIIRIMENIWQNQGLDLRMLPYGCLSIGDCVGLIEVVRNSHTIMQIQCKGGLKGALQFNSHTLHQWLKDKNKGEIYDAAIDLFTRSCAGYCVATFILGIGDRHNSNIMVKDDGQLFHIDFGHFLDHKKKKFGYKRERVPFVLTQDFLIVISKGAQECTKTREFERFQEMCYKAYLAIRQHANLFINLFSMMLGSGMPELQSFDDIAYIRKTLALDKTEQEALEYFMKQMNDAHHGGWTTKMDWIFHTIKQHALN
Sequence of PI3Kα (P27986 whole entry partner, species assumed): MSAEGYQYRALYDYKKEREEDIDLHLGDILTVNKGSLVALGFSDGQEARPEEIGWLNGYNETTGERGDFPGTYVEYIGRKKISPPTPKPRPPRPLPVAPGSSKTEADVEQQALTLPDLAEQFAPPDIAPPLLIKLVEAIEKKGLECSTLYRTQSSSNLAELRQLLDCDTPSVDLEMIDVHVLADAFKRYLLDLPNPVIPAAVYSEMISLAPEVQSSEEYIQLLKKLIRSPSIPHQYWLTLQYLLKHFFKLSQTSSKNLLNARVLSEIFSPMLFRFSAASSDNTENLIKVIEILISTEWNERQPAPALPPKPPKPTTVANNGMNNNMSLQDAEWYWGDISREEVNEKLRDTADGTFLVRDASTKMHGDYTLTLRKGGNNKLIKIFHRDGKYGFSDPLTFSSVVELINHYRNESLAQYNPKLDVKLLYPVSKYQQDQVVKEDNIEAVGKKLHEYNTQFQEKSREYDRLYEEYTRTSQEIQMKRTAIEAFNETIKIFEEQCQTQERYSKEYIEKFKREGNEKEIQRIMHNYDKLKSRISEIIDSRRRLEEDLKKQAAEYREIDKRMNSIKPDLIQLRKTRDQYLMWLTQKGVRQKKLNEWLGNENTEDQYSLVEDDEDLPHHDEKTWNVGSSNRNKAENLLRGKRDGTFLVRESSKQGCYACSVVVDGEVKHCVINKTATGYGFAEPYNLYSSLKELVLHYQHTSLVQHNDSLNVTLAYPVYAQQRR

[4] = tested on: human tumor xenograft models; settings: cited from earlier work
[5] = tested on: acute lymphoblastic leukemia; settings: NOS/SCID xenograft; cited from earlier work
[6] = molecular target: T1, mTOR; settings: read-out: mTOR complexes / mTOR enzymes IC50; literature value; cited from earlier work

melting point [°C] | IC50 [1] [nM] | IC50 [2] [nM] | IC50 [3] [nM] | SMILES | activity against human tumor models ([4]; prostrate (PC-3) and glioblastoma (U-87)) | activity against human tumor models ([4]; I.P. dosing in mice, U87MG, PC3, MDA-MB-468, MDA-MB-435, HCT 116, SKOV3, IGROV-1) | activity in xenograft mouse model [5] | IC50 [6] [nM] | tumor growth inhibition ([4]; chronic oral administration, 400 mg/kg, A549, PC-3, WiDr)
162 to 166 | 396 | 3.2 | 223 | C[C@@H]1CN(C(=O)C2CCN(c3ccnc4c3c(/C=C3\Oc5cccc(O)c5C3=O)cn4C)CC2)C[C@H](C)O1 [Compound 302, (2Z)-2-{[4-(4-{[(2R,6S)-2,6-dimethylmorpholin-4-yl]carbonyl}piperidin-1-yl)-1-methyl-1H-pyrrolo[2,3-b]pyridin-3-yl]methylidene}-4-hydroxy-1-benzofuran-3(2H)-one] |  |  |  |  | 
262 to 270 | 98 | 2.3 | 75 | C[C@@H]1CN(C(=O)c2ccc(-c3ccnc4c3c(/C=C3\Oc5cccc(O)c5C3=O)cn4C)cc2)C[C@H](C)O1 [Compound 303, (2Z)-2-{[4-(4-{[(2R,6S)-2,6-dimethylmorpholin-4-yl]carbonyl}phenyl)-1-methyl-1H-pyrrolo[2,3-b]pyridin-3-yl]methylidene}-4-hydroxy-1-benzofuran-3(2H)-one] |  |  |  |  | 
264 to 268 | 131 | 2 | 51 | Cn1cc(/C=C2\Oc3cccc(O)c3C2=O)c2c(N3CCC(C(=O)N4CC5CCC(C4)O5)CC3)ccnc21 [Compound 306, (2Z)-4-hydroxy-2-({1-methyl-4-[4-(8-oxa-3-azabicyclo[3.2.1]oct-3-ylcarbonyl)piperidin-1-yl]-1H-pyrrolo[2,3-b]pyridin-3-yl}methylidene)-1-benzofuran-3(2H)-one] |  |  |  |  | 
136 to 140 | 158 | 1.9 | 24 | Cn1cc(/C=C2\Oc3cccc(O)c3C2=O)c2c(N3CCC(C(=O)N4CCN(CCO)CC4)CC3)ccnc21 [Compound 307, (2Z)-4-hydroxy-2-{[4-(4-{[4-(2-hydroxyethyl)piperazin-1-yl]carbonyl}piperidin-1-yl)-1-methyl-1H-pyrrolo[2,3-b]pyridin-3-yl]methylidene}-1-benzofuran-3(2H)-one] |  |  |  |  | 
206 to 210 | 2800 | 37 | 729 | COCC1CN(C(=O)C2CCN(c3ccnc4c3c(/C=C3\Oc5ccc(NC(=O)Nc6cccnc6)cc5C3=O)cn4C)CC2)CCO1 (stereo not shown) [Compound 308, 1-[(2Z)-2-{[4-(4-{[2-(methoxymethyl)morpholin-4-yl]carbonyl}piperidin-1-yl)-1-methyl-1H-pyrrolo[2,3-b]pyridin-3-yl]methylidene}-3-oxo-2,3-dihydro-1-benzofuran-5-yl]-3-pyridin-3-ylurea] |  |  |  |  | 
222 to 226 | 212 | 1.4 | 73 | COCC1CN(C(=O)c2ccc(-c3ccnc4c3c(/C=C3\Oc5cccc(O)c5C3=O)cn4C)cc2)CCO1 (stereo not shown) [Compound 310, (2Z)-4-hydroxy-2-{[4-(4-{[2-(methoxymethyl)morpholin-4-yl]carbonyl}phenyl)-1-methyl-1H-pyrrolo[2,3-b]pyridin-3-yl]methylidene}-1-benzofuran-3(2H)-one] |  |  |  |  | 
112 to 115 | 698 | 3.8 | 145 | COCC1CN(C(=O)C2CCN(c3ccnc4c3c(/C=C3\Oc5cccc(O)c5C3=O)cn4C)CC2)CCO1 (stereo not shown) [Compound 311, (2Z)-4-hydroxy-2-{[4-(4-{[2-(methoxymethyl)morpholin-4-yl]carbonyl}piperidin-1-yl)-1-methyl-1H-pyrrolo[2,3-b]pyridin-3-yl]methylidene}-1-benzofuran-3(2H)-one] |  |  |  |  | 

The remaining lines, values behind:

SMILES | melting point [°C] | IC50 [1] [nM] | IC50 [2] [nM] | IC50 [3] [nM] | activity against human tumor models ([4]; prostrate (PC-3) and glioblastoma (U-87)) | activity against human tumor models ([4]; I.P. dosing in mice, U87MG, PC3, MDA-MB-468, MDA-MB-435, HCT 116, SKOV3, IGROV-1) | activity in xenograft mouse model [5] | IC50 [6] [nM] | tumor growth inhibition ([4]; chronic oral administration, 400 mg/kg, A549, PC-3, WiDr)
COCCN1CCN(C(=O)c2ccc(-c3ccnc4c3c(/C=C3\Oc5cccc(O)c5C3=O)cn4C)cc2)CC1 [Compound 304, (2Z)-4-hydroxy-2-{[4-(4-{[4-(2-methoxyethyl)piperazin-1-yl]carbonyl}phenyl)-1-methyl-1H-pyrrolo[2,3-b]pyridin-3-yl]methylidene}-1-benzofuran-3(2H)-one] | 118 to 122 | 312 | 1.5 | 109 |  |  |  |  | 
COCCC1CN(C(=O)c2ccc(-c3ccnc4c3c(/C=C3\Oc5cccc(O)c5C3=O)cn4C)cc2)CCO1 (stereo not shown) [Compound 305, (2Z)-4-hydroxy-2-{[4-(4-{[2-(2-methoxyethyl)morpholin-4-yl]carbonyl}phenyl)-1-methyl-1H-pyrrolo[2,3-b]pyridin-3-yl]methylidene}-1-benzofuran-3(2H)-one] | 154 to 160 | 38 | 1 | 65 |  |  |  |  | 
Cn1cc(/C=C2\Oc3ccc(NC(=O)Nc4cccnc4)cc3C2=O)c2c(N3CCC(C(=O)N4C5CCCC4COC5)CC3)ccnc21 [Compound 309, 1-[(2Z)-2-({1-methyl-4-[4-(3-oxa-9-azabicyclo[3.3.1]non-9-ylcarbonyl)piperidin-1-yl]-1H-pyrrolo[2,3-b]pyridin-3-yl}methylidene)-3-oxo-2,3-dihydro-1-benzofuran-5-yl]-3-pyridin-3-ylurea] | 210 to 215 | 1370 | 48 | 164 |  |  |  |  | 
Cn1cc(/C=C2\Oc3cccc(O)c3C2=O)c2c(N3CCC(C(=O)N4C5CCCC4COC5)CC3)ccnc21 [Compound 312, (2Z)-4-hydroxy-2-({1-methyl-4-[4-(3-oxa-9-azabicyclo[3.3.1]non-9-ylcarbonyl)piperidin-1-yl]-1H-pyrrolo[2,3-b]pyridin-3-yl}methylidene)-1-benzofuran-3(2H)-one] | 210 to 218 | 453 | 3.2 | 67 |  |  |  |  | 
Cn1c(=O)n(-c2ccc(C(C)(C)C#N)cc2)c2c3cc(-c4cnc5ccccc5c4)ccc3ncc21 [NVP-BEZ-235, 2-methyl-2-(4-(3-methyl-2-oxo-8-(quinolin-3-yl)-2,3-dihydro-1H-imidazo[4,5-c]quinolin-1-yl)phenyl)propanenitrile] |  |  |  |  | demonstrated activity |  |  |  | 
Oc1cccc(-c2nc(N3CCOCC3)c3oc4ncccc4c3n2)c1 [PI103, 3-(4-(4-morpholinyl)pyrido[3′,2′:4,5]furo[3,2-d]pyrimidin-2-yl)phenol] |  |  |  |  |  | demonstrated activity |  |  | 
CO[C@H]1C[C@@H]2CC[C@@H](C)[C@@](O)(O2)C(=O)C(=O)N2CCCC[C@H]2C(=O)O[C@H]([C@H](C)C[C@@H]2CC[C@@H](OC(=O)C(C)(CO)CO)[C@H](OC)C2)CC(=O)[C@H](C)/C=C(\C)[C@@H](O)[C@@H](OC)C(=O)[C@H](C)C[C@H](C)/C=C/C=C/C=C/1C [Torisel] |  |  |  |  |  |  | active |  | 
FC(F)c1nc2ccccc2n1-c1nc(N2CCOCC2)nc(N2CCOCC2)n1 [ZSTK474, 2-(2-difluoromethylbenzoimidazol-1-yl)-4,6-dimorpholino-1,3,5-triazine] |  |  |  |  |  |  |  | > 10000 | completely inhibited growth
